Starred links: 1 amine or outer side, 2 acyl side, 3 side chain; linkers in the order of their positions; H or OH if unused. Positions of bridges follow the written chain, without caps; N, C: chain ends. Non-standard residues stand in square brackets, D forms with d. Residues, ends and D or L forms follow the SMILES beside them. Groups on a side chain read outwards from the residue. Triazole bridges read from a SMILES are 1,4-linked. *: point of attachment. Lys(N3) = [N-]=[N+]=NCCCC[C@H](N)C(=O)O; γGlu = O=C(O)[C@H](CCC(=O)[*:2])N[*:1]; Met(O2) = CS(=O)(=O)CC[C@H](N)C(=O)O; Palmitoyl = CCCCCCCCCCCCCCCC(=O)*; dPra = C#CC[C@@H](N)C(=O)O; Aib = CC(C)(N)C(=O)O
Target: T1, human GCGR (Homo sapiens, UniProt P47871)
T1 construct: expressed in transfected cells; grown under Blasticidin and Hygromycin selection
Experiment: cAMP activity assay in cells expressing human GCGR
Type: cell-based
Details: for hGCGR/hGLP1R (hTone): ratio of human GCGR EC50 to human GLP1R EC50
Experimental: Activity of the peptides at the Glucagon receptor (GCGR) and GLP-1 receptor (GLP1R) was measured in a cAMP activity assay.
Peptides were dissolved in 100% DMSO and serially diluted to generate 10 point titrations. The peptide solutions were then transferred into 384-well assay plates (150 nL/well). Assay ready frozen cells expressing human GLP1R or human GCGR were suspended in growth media consisting of DMEM medium (GIBCO), 10% FBS (GIBCO), 1× NEAA(GIBCO), 1× P/S (GIBCO), 10 ug/ml Blasticidin (GIBCO) and 200 μg/mL Hygromycin (GIBCO). Cells were then diluted in assay buffer consisting of PBS (GIBCO), 7.5% BSA (Perkin Elmer), 100 μM RO 20-1724 (Sigma), with or without 20% human serum (MP Biomedical). The cell suspensions (15 μL) were then added to the assay plates containing the peptide solutions (30,000 cells/well for human GCGR; 10,000 cells/well for human GLP1R). The cells were incubated for 1 hour at room temperature in the dark. Production of cAMP was determined using HitHunter™ cAMPXS kits (DiscoverX) following manufacturer protocol. The plates were incubated for overnight at room temperature in the dark. Luminescence was measured using an EnVision Multilabel plate reader (Perkin Elmer). Native GLP-1 and Glucagon (Bachem) are used as control peptides. EC50 values were calculated using uses a 4 parameter logistic fit based on the Levenberg-Marquardt algorithm.

T1 sequence (P47871 26-477): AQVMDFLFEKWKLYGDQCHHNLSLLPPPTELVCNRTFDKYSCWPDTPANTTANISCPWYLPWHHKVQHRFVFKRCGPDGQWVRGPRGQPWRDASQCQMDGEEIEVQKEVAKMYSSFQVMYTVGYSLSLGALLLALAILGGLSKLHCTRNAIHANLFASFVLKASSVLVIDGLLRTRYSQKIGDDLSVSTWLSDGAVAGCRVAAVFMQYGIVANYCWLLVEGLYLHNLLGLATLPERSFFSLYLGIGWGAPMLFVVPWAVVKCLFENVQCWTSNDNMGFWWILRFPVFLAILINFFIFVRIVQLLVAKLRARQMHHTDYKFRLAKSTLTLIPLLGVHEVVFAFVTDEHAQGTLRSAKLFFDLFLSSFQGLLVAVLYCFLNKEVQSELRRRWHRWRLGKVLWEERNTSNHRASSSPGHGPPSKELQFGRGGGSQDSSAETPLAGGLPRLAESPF

Row | hGCGR/hGLP1R (hTone) | EC50 (cAMP production, HitHunter cAMPXS, 1 hour, assay buffer with or without 20% human serum (not given)) | Structure (SMILES)
1 | 1.92 | – | CC(C)C[C@H](NC(=O)[C@H](Cc1ccc(O)cc1)NC(=O)[C@H](CCCCN)NC(=O)[C@H](CO)NC(=O)[C@H](CCCCN)NC(=O)[C@H](CC(=O)O)NC(=O)[C@H](CO)NC(=O)[C@@H](NC(=O)[C@H](Cc1ccccc1)NC(=O)[C@@H](NC(=O)CNC(=O)[C@H](CCC(N)=O)NC(=O)[C@@H](CO)NC(=O)[C@@H](N)Cc1c[nH]cn1)[C@@H](C)O)[C@@H](C)O)C(=O)N[C@@H](CC(=O)O)C(=O)N[C@@H](CCC(=O)O)C(=O)N[C@@H](CCCNC(=N)N)C(=O)N[C@@H](C)C(=O)N[C@@H](C)C(=O)N[C@@H]1Cc2cn(nn2)CCCC[C@@H](C(=O)N[C@@H](Cc2c[nH]c3ccccc23)C(=O)N[C@@H](CC(C)C)C(=O)N[C@@H](CC(C)C)C(=O)N[C@@H](CC(=O)O)C(=O)N[C@H](C(N)=O)[C@@H](C)O)NC(=O)[C@H](C(C)C)NC(=O)[C@H](Cc2ccccc2)NC(=O)[C@H](CC(=O)O)NC1=O [compound 9] (H-H[dS]QGTFTSDKSKYLDERAA[dPra]DFV[Lys(N3)]WLLDT-NH2; triazole 20-24)
2 | 0.8 | – | CCCCCCCCCCCCCCCC(=O)N[C@@H](CCC(=O)N[C@@H](CCC(=O)NCCCC[C@H](NC(=O)[C@H](CC(=O)O)NC(=O)[C@H](CO)NC(=O)[C@@H](NC(=O)[C@H](Cc1ccccc1)NC(=O)[C@@H](NC(=O)CNC(=O)[C@H](CCC(N)=O)NC(=O)[C@@H](CO)NC(=O)[C@@H](N)Cc1c[nH]cn1)[C@@H](C)O)[C@@H](C)O)C(=O)N[C@@H](CO)C(=O)N[C@@H](CCCCN)C(=O)N[C@@H](Cc1ccc(O)cc1)C(=O)N[C@@H](CC(C)C)C(=O)N[C@@H](CC(=O)O)C(=O)N[C@@H]1Cc2cn(nn2)CCCC[C@@H](C(=O)N[C@@H](CC(=O)O)C(=O)N[C@@H](Cc2ccccc2)C(=O)N[C@H](C(=O)N[C@@H](CCC(N)=O)C(=O)N[C@@H](Cc2c[nH]c3ccccc23)C(=O)N[C@@H](CC(C)C)C(=O)N[C@@H](CC(C)C)C(=O)N[C@@H](CC(=O)O)C(=O)N[C@H](C(N)=O)[C@@H](C)O)C(C)C)NC(=O)[C@H](C)NC(=O)[C@H](C)NC(=O)[C@H](CCCNC(=N)N)NC1=O)C(=O)O)C(=O)O [compound 12] (H-H[dS]QGTFTSDK([γGlu-γGlu-Palmitoyl])SKYLD[dPra]RAA[Lys(N3)]DFVQWLLDT-NH2; triazole 16-20)
3 | 0.72 | – | CCCCCCCCCCCCCCCC(=O)N[C@@H](CCC(=O)N[C@@H](CCC(=O)NCCCC[C@H](NC(=O)[C@H](CC(=O)O)NC(=O)[C@H](CO)NC(=O)[C@@H](NC(=O)[C@H](Cc1ccccc1)NC(=O)[C@@H](NC(=O)CNC(=O)[C@H](CCC(N)=O)NC(=O)[C@@H](CO)NC(=O)[C@@H](N)Cc1c[nH]cn1)[C@@H](C)O)[C@@H](C)O)C(=O)N[C@@H](CO)C(=O)N[C@@H](CCCCN)C(=O)N[C@@H](Cc1ccc(O)cc1)C(=O)N[C@@H](CC(C)C)C(=O)N[C@@H](CC(=O)O)C(=O)N[C@@H](C)C(=O)N[C@@H](CCCNC(=N)N)C(=O)N[C@@H](C)C(=O)N[C@@H](C)C(=O)N[C@@H](CCC(N)=O)C(=O)N[C@@H](CC(=O)O)C(=O)N[C@@H](Cc1ccccc1)C(=O)N[C@H](C(=O)N[C@@H]1Cc2cn(nn2)CCCC[C@@H](C(=O)N[C@H](C(N)=O)[C@@H](C)O)NC(=O)[C@H](CC(C)C)NC(=O)[C@H](CC(C)C)NC(=O)[C@H](Cc2c[nH]c3ccccc23)NC1=O)C(C)C)C(=O)O)C(=O)O [compound 15] (H-H[dS]QGTFTSDK([γGlu-γGlu-Palmitoyl])SKYLDARAAQDFV[dPra]WLL[Lys(N3)]T-NH2; triazole 24-28)
4 | 0.4 | – | CCCCCCCCCCCCCCCC(=O)N[C@@H](CCC(=O)N[C@@H](CCC(=O)NCCCC[C@H](NC(=O)[C@H](CC(=O)O)NC(=O)[C@H](CO)NC(=O)[C@@H](NC(=O)[C@H](Cc1ccccc1)NC(=O)[C@@H](NC(=O)CNC(=O)[C@H](CCC(N)=O)NC(=O)[C@@H](CO)NC(=O)[C@@H](N)Cc1c[nH]cn1)[C@@H](C)O)[C@@H](C)O)C(=O)N[C@@H](CO)C(=O)N[C@@H](CCCCN)C(=O)N[C@@H](Cc1ccc(O)cc1)C(=O)N[C@@H](CC(C)C)C(=O)N[C@@H](CC(=O)O)C(=O)N[C@@H](C)C(=O)N[C@@H](CCCNC(=N)N)C(=O)N[C@@H](C)C(=O)N[C@@H](C)C(=O)N[C@@H]1Cc2cn(nn2)CCCC[C@@H](C(=O)N[C@@H](Cc2c[nH]c3ccccc23)C(=O)N[C@@H](CC(C)C)C(=O)N[C@@H](CC(C)C)C(=O)N[C@@H](CC(=O)O)C(=O)N[C@H](C(N)=O)[C@@H](C)O)NC(=O)[C@H](C(C)C)NC(=O)[C@H](Cc2ccccc2)NC(=O)[C@H](CC(=O)O)NC1=O)C(=O)O)C(=O)O [compound 13] (H-H[dS]QGTFTSDK([γGlu-γGlu-Palmitoyl])SKYLDARAA[dPra]DFV[Lys(N3)]WLLDT-NH2; triazole 20-24)
5 | 0.54 | – | CCCCCCCCCCCCCCCC(=O)N[C@@H](CCC(=O)N[C@@H](CCC(=O)NCCCC[C@H](NC(=O)[C@H](CC(=O)O)NC(=O)[C@H](CO)NC(=O)[C@@H](NC(=O)[C@H](Cc1ccccc1)NC(=O)[C@@H](NC(=O)CNC(=O)[C@H](CCC(N)=O)NC(=O)[C@@H](CO)NC(=O)[C@@H](N)Cc1c[nH]cn1)[C@@H](C)O)[C@@H](C)O)C(=O)N[C@@H](CO)C(=O)N[C@@H](CCCCN)C(=O)N[C@@H](Cc1ccc(O)cc1)C(=O)N[C@@H](CC(C)C)C(=O)N[C@@H](CC(=O)O)C(=O)N[C@@H](C)C(=O)N[C@@H](CCCNC(=N)N)C(=O)N[C@@H](C)C(=O)N[C@@H](C)C(=O)N[C@@H](CCC(N)=O)C(=O)N[C@@H](CC(=O)O)C(=O)N[C@@H](Cc1ccccc1)C(=O)N[C@H](C(=O)N[C@H]1CCCCn2cc(nn2)C[C@H](C(=O)N[C@H](C(N)=O)[C@@H](C)O)NC(=O)[C@H](CC(C)C)NC(=O)[C@H](CC(C)C)NC(=O)[C@H](Cc2c[nH]c3ccccc23)NC1=O)C(C)C)C(=O)O)C(=O)O [compound 24] (H-H[dS]QGTFTSDK([γGlu-γGlu-Palmitoyl])SKYLDARAAQDFV[Lys(N3)]WLL[dPra]T-NH2; triazole 24-28; N-terminus assumed)
6 | – | ≥ 5 nM | CSCC[C@@H]1NC(=O)[C@H](CC(C)C)NC(=O)[C@H](Cc2c[nH]c3ccccc23)NC(=O)[C@H](NC(=O)[C@@H](NC(=O)[C@H](Cc2ccccc2)NC(=O)[C@H](CC(=O)O)NC(=O)[C@H](CCC(N)=O)NC(=O)[C@H](C)NC(=O)[C@H](C)NC(=O)[C@H](CCCNC(=N)N)NC(=O)C(C)(C)NC(=O)[C@H](CC(=O)O)NC(=O)[C@H](CC(C)C)NC(=O)[C@H](Cc2ccc(O)cc2)NC(=O)[C@H](CCCCN)NC(=O)[C@H](CO)NC(=O)[C@H](CCCCN)NC(=O)[C@H](CC(=O)O)NC(=O)[C@H](CO)NC(=O)[C@@H](NC(=O)[C@H](Cc2ccccc2)NC(=O)[C@@H](NC(=O)CNC(=O)[C@H](CCC(N)=O)NC(=O)C(C)(C)NC(=O)[C@@H](N)Cc2c[nH]cn2)[C@@H](C)O)[C@@H](C)O)C(C)C)Cc2cn(nn2)CCCC[C@@H](C(=O)N[C@H](C(=O)N[C@@H](CCCCN)C(=O)N[C@@H](CCC(N)=O)C(=O)O)[C@@H](C)O)NC1=O [compound 11] (H-H[Aib]QGTFTSDKSKYLD[Aib]RAAQDFV[dPra]WLM[Lys(N3)]TKQ-OH; triazole 24-28; N-terminus assumed)
7 | 4.5 | – | CCCCCCCCCCCCCCCC(=O)N[C@@H](CCC(=O)N[C@@H](CCC(=O)NCCCC[C@H](NC(=O)[C@H](CC(=O)O)NC(=O)[C@H](CO)NC(=O)[C@@H](NC(=O)[C@H](Cc1ccccc1)NC(=O)[C@@H](NC(=O)CNC(=O)[C@H](CCC(N)=O)NC(=O)C(C)(C)NC(=O)[C@@H](N)Cc1c[nH]cn1)[C@@H](C)O)[C@@H](C)O)C(=O)N[C@@H](CO)C(=O)N[C@@H](CCCCN)C(=O)N[C@@H](Cc1ccc(O)cc1)C(=O)N[C@@H](CC(C)C)C(=O)N[C@@H](CC(=O)O)C(=O)NC(C)(C)C(=O)N[C@@H](CCCNC(=N)N)C(=O)N[C@@H](C)C(=O)N[C@@H](C)C(=O)N[C@@H]1Cc2cn(nn2)CCCC[C@@H](C(=O)N[C@@H](Cc2c[nH]c3ccccc23)C(=O)N[C@@H](CC(C)C)C(=O)N[C@@H](CCS(C)(=O)=O)C(=O)N[C@@H](CC(=O)O)C(=O)N[C@H](C(=O)N[C@@H](CCCCN)C(=O)N[C@@H](CCC(N)=O)C(=O)O)[C@@H](C)O)NC(=O)[C@H](C(C)C)NC(=O)[C@H](Cc2ccccc2)NC(=O)[C@H](CC(=O)O)NC1=O)C(=O)O)C(=O)O [compound 21] (H-H[Aib]QGTFTSDK([γGlu-γGlu-Palmitoyl])SKYLD[Aib]RAA[dPra]DFV[Lys(N3)]WL[Met(O2)]DTKQ-OH; triazole 20-24)

— US20230063794A1, “STAPLED TRIAZOLE CO-AGONISTS OF THE GLUCAGON AND GLP-1 RECEPTORS” (Merck Sharp & Dohme LLC, priority 2019, published 2023)
